Experimental data reported in patent publication US20180291335A1, “MODIFIED POLYNUCLEOTIDES FOR ALTERING CELL PHENOTYPE” (ModernaTX, Inc., priority 2012, published 2018).

How the values were obtained:
rabbit reticulysates = assay: G-CSF modified mRNA in rabbit reticulysates, G-CSF ELISA; type: biochemical; details: 250 ng of modified mRNA
Summary of the method: (§1)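 G-CSF ELISA readout after 250 ng of chemically modified human G-CSF mRNA (transcribed by mutant T7 polymerase) was added to rabbit reticulocyte lysate or transfected in vitro into HeLa cells.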

HeLa cells [1] = assay: G-CSF modified mRNA transfected in HeLa cells, G-CSF ELISA; type: cell-based, human; details: HeLa cells, ELISA
Summary of the method: as §1

[2] = system: tumor necrosis factor alpha (TNF-α); assay: In vitro screening in PBMC: tumor necrosis factor alpha induction by ELISA; type: cell-based, human
Summary of the method: (§2)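 After harvest, the medium above the cells is stored frozen; later, ELISA quantifies G-CSF expression plus IFN-α and TNF-α levels.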

HeLa cells [3] = assay: In vitro screening in HeLa cells, luciferase modified RNA; type: cell-based, human; details: HeLa cells, 83 ng luciferase modified RNA, 18 to 22 hours
Procedure: (§3) The day before transfection, 20,000 HeLa cells (ATCC no. CCL-2; Manassas, Va.) were harvested by treatment with Trypsin-EDTA solution (LifeTechnologies, Grand Island, N.Y.) and seeded in a total volume of 100 ul EMEM medium (supplemented with 10% FCS and 1× Glutamax) per well in a 96-well cell culture plate (Corning, Manassas, Va.). The cells were grown at […] in 5% CO2 atmosphere overnight. […] Lipofectamine 2000 (LifeTechnologies, Grand Island, N.Y.) was used as transfection reagent and 0.2 ul were diluted in 10 ul final volume of OPTI-MEM. After 5 minutes of incubation at room temperature, both solutions were combined and incubated an additional 15 minute at room temperature. Then the 20 ul combined solution was added to the 100 ul cell culture medium containing the HeLa cells and incubated at room temperature.
(§4) After 18 to 22 hours of incubation cells expressing luciferase were lysed with 100 ul of Passive Lysis Buffer (Promega, Madison, Wis.) according to manufacturer instructions. Aliquots of the lysates were transferred to white opaque polystyrene 96-well plates (Corning, Manassas, Va.) and combined with 100 ul complete luciferase assay solution (Promega, Madison, Wis.). The lysate volumes were adjusted or diluted until no more than 2 mio relative light units (RLU) per well were detected for the strongest signal producing samples and the RLUs for each chemistry tested are shown in Table 19. The plate reader was a BioTek Synergy H1 (BioTek, Winooski, Vt.). The background signal of the plates without reagent was about 200 relative light units per well.

Balb-C mice [4] = assay: In vivo screening of luciferase modified mRNA, whole-body bioluminescence; details: subcutaneous; for Luciferase expression (photon/second): 42 to 103 ug mRNA in 1×PBS, imaged 8 hours after dosing, total flux of entire mouse
Procedure: (§5) A control of PBS was also tested. The dosages of the modified luciferase mRNA is also outlined in Table 22. 8 hours after dosing the mice were imaged to determine luciferase expression. Twenty minutes prior to imaging, mice were injected intraperitoneally with a D-luciferin solution at 150 mg/kg. Animals were then anesthetized and images were acquired with an IVIS Lumina II imaging system (Perkin Elmer). Bioluminescence was measured as total flux (photons/second) of the entire mouse.

[5] = system: human embryonic kidney 293 (HEK293) cells; assay: Cytotoxicity of NTPs, CYTO TOX-GLO assay; type: cell-based
Procedure: The cytotoxicity of natural and modified nucleoside triphosphates (NTPs) alone or in combination with other bases, was analyzed in human embryonic kidney 293 (HEK293) cells in the absence of transfection reagent. […] 10 ul of the NTPs outlined in Table 12 were combined with 10 ul of lipid dilution and incubated for 30 minutes to form a complex before 80 ul of the HEK293 cell suspension was added to the NTP complex.
Natural and modified NTPs were transfected at a concentration of 2.1 nM, 21 nM, 210 nM, 2.1 um, 21 uM, 210 um or 2.1 mM. NTPs in combination were transfected at a total concentration of NTPs of 8.4 nM, 84 nM, 840 nM, 8.4 uM, 84 uM, 840 uM and 8.4 mM. […] The cytotoxicity of the NTPs and the modified G-CSF mRNA was assayed at 4, 24, 48 and 72 hours post addition to the HEK293 cells using a CYTO TOX-GLO™ assay from Promega (Madison, Wis.) following the manufacturer protocol except pippeting was used for lysing the cells instead of shaking the plates.

interferon-alpha (IFN-α) = assay: In vitro screening in PBMC: interferon-alpha induction by ELISA; type: cell-based, human
Summary of the method: as §2

[6] = system: Rabbit Reticulocyte Lysate; assay: In vitro screening in rabbit reticulocyte lysates, luciferase mRNA translation; type: biochemical; details: 250 ng luciferase mRNA, 60 minutes, 30° C.
Procedure: The diluted luciferase was added to 40 ul of freshly prepared Rabbit Reticulocyte Lysate and the in vitro translation reaction was done in a standard 1.5 mL polypropylene reaction tube (Thermo Fisher Scientific, Waltham, Mass.) at 30° C. in a dry heating block. The translation assay was done with the Rabbit Reticulocyte Lysate (nuclease-treated) kit (Promega, Madison, Wis.) according to the manufacturer's instructions. The reaction buffer was supplemented with a one-to-one blend of provided amino acid stock solutions devoid of either Leucine or Methionine resulting in a reaction mix containing sufficient amounts of both amino acids to allow effective in vitro translation.
(§6) After 60 minutes of incubation, the reaction was stopped by placing the reaction tubes on ice. Aliquots of the in vitro translation reaction containing luciferase modified RNA were transferred to white opaque polystyrene 96-well plates (Corning, Manassas, Va.) and combined with 100 ul complete luciferase assay solution (Promega, Madison, Wis.). The volumes of the in vitro translation reactions were adjusted or diluted until no more than 2 mio relative light units (RLUs) per well were detected for the strongest signal producing samples and the RLUs for each chemistry tested are shown in Table 20. The plate reader was a BioTek Synergy H1 (BioTek, Winooski, Vt.). The background signal of the plates without reagent was about 200 relative light units per well.

[7] = system: peripheral blood mononuclear cells (PBMC); assay: In vitro screening in PBMC: G-CSF protein expression by ELISA; type: cell-based, human
Summary of the method: as §2

HeLa cells [8] = assay: Luciferase in HeLa cells using a combination of modifications; type: cell-based, human; details: 83 ng luciferase modified RNA, 18 to 22 hours
Procedure: To evaluate using of 2′fluoro-modified mRNA in combination with other modification a series of mRNA were transcribed using either wild-type T7 polymerase (non-fluoro-containing compounds) or using mutant T7 polymerases (fluyoro-containing compounds) as described in Example 86. All modified mRNA were tested by in vitro transfection in HeLa cells.
as §3
as §4, with “26.” for “19.”

[9] = system: Rabbit Reticulocyte Lysate; assay: 2′Fluoro luciferase mRNA in rabbit reticulocyte lysate assay; type: biochemical; details: Rabbit reticulysates, 250 ng luciferase mRNA, 60 minutes
Procedure: For the rabbit reticulocyte lysate assay, 2′-fluoro-containing luciferase mRNA were diluted in sterile nuclease-free water to a final amount of 250 ng in 10 ul and added to 40 ul of freshly prepared Rabbit Reticulocyte Lysate and the in vitro translation reaction was done in a standard 1.5 mL polypropylene reaction tube (Thermo Fisher Scientific, Waltham, Mass.) at 30° C. in a dry heating block. The translation assay was done with the Rabbit Reticulocyte Lysate (nuclease-treated) kit (Promega, Madison, Wis.) according to the manufacturer's instructions. The reaction buffer was supplemented with a one-to-one blend of provided amino acid stock solutions devoid of either Leucine or Methionine resulting in a reaction mix containing sufficient amounts of both amino acids to allow effective in vitro translation. […]
as §6, with “Aliquots” for “After 60 minutes of incubation, the reaction was stopped by placing the reaction tubes on ice. Aliquots”, “Tables 24 and 25.” for “Table 20.”, “The background signal of the plates without reagent was about 200 relative light units per well.” left out

HeLa cells [10] = assay: 2′Fluoro luciferase mRNA transfection in HeLa cells; type: cell-based, human; details: 83 ng 2′fluoro-containing luciferase RNA, 18 to 22 hours
Procedure: The 2′Fluoro-modified mRNA were then transfected into HeLa cells to assess protein production in a cell context and the same mRNA were also assessed in a cell-free rabbit reticulocyte system. A control of unmodified luciferase (natural luciferase) was used for both transcription experiments, a control of untreated and mock transfected (Lipofectamine 2000 alone) were also analyzed for the HeLa transfection and a control of no RNA was analyzed for the rabbit reticulysates.
For the HeLa transfection experiments, the day before transfection, 20,000 HeLa cells (ATCC no. CCL-2; Manassas, Va.) were harvested by treatment with Trypsin-EDTA solution (LifeTechnologies, Grand Island, N.Y.) and seeded in a total volume of 100 ul EMEM medium (supplemented with 10% FCS and 1× Glutamax) per well in a 96-well cell culture plate (Corning, Manassas, Va.). The cells were grown at […] in 5% CO2 atmosphere overnight. […] Lipofectamine 2000 (LifeTechnologies, Grand Island, N.Y.) was used as transfection reagent and 0.2 ul were diluted in 10 ul final volume of OPTI-MEM. […] The lysate volumes were adjusted or diluted until no more than 2 mio relative light units (RLU) per well were detected for the strongest signal producing samples and the RLUs for each chemistry tested are shown in Table 24. The plate reader was a BioTek Synergy H1 (BioTek, Winooski, Vt.). […]

Balb-C mice [11] = assay: In vivo screening of combination luciferase modified mRNA, whole-body bioluminescence; details: subcutaneous, 100 ug mRNA in 1×PBS, imaged 8 hours after dosing
Procedure: as §5

[12] = PBMC Donor 1, 500 ng G-CSF mRNA
[13] = PBMC Donor 2, 500 ng G-CSF mRNA
[14] = PBMC Donor 3, 500 ng G-CSF mRNA

O=c1[nH]cc([C@@H]2O[C@H](CO)[C@@H](O)[C@H]2O)c(=O)[nH]1 [Pseudouridine]
G-CSF protein (pg/ml) Rabbit reticulysates cells (rabbit reticulysates): 147,875 pg/ml | G-CSF protein (pg/ml) HeLa cells (HeLa cells [1]; G-CSF mRNA): 1,150,909 pg/ml | TNF-α Expression [2, 12]: 36 pg/mL | TNF-α Expression [2, 13]: 81 pg/mL | TNF-α Expression [2, 14]: 126 pg/mL | RLU (HeLa cells [3]): 655,632 RLU | Luciferase expression (photon/second) (Balb-C mice [4]): 1.36E+07 photon/second | toxicity as compared to the untreated cells [5]: not toxic | IFN-α Expression (interferon-alpha (IFN-α); [12]): 120 pg/mL | IFN-α Expression (interferon-alpha (IFN-α); [13]): 77 pg/mL | IFN-α Expression (interferon-alpha (IFN-α); [14]): 171 pg/mL | cytokine induction (interferon-alpha (IFN-α); PBMC, G-CSF mRNA, result in words): detectable cytokine induction which is above background | RLU [6]: 587,795 RLU | G-CSF Protein Expression [7, 12]: 2477 pg/mL | G-CSF Protein Expression [7, 13]: 1,909 pg/ml | G-CSF Protein Expression [7, 14]: 1,498 pg/ml

2′-flurorouridine: Luciferase mRNA (SEQ ID NO: 409) fully modified with 2′-fluorouridine
G-CSF protein (pg/ml) HeLa cells (HeLa cells [1]; combination chemistries): 0 pg/mL | RLU (HeLa cells [8]): 305 RLU | Luciferase expression (photon/second) (Balb-C mice [4]): 3.47E+05 photon/second | in vivo activity (Balb-C mice [4]; luciferase mRNA, result in words): exception | RLU [9]: 258 RLU | RLU (HeLa cells [10]): 6767.5 RLU

5-methylcytidine/where 50% of the uridine is replaced with 2-thiouridine: Luciferase mRNA (SEQ ID NO: 409) with 5-methylcytidine and 50% of the uridine replaced with 2-thiouridine
RLU (HeLa cells [8]): 41,601 RLU | Luciferase expression (photon/second) (Balb-C mice [11]): 2.39E+06 photon/second
